Laboratory results published in PubChem BioAssay (NCI).
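1) Cells in 96-well plates. 2) Compound, 48 h, 5 concentrations. 3) Linear interpolation between surrounding doses. 4) Unreached endpoint = highest concentration. At the TGI there is no net growth.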

Columns and labels:
Assay in all cases: NCI anticancer screen, dose series, 48 h
UACC-62 melanoma = system: UACC-62 melanoma
OVCAR-3 ovarian = system: OVCAR-3 ovarian
SW-620 colon = system: SW-620 colon
U251 CNS = system: U251 CNS
CAKI-1 renal = system: CAKI-1 renal
UO-31 renal = system: UO-31 renal
TK-10 renal = system: TK-10 renal
HOP-92 NSCLC = system: HOP-92 NSCLC
MDA-MB-231 breast = system: MDA-MB-231 breast
NCI/ADR-RES ovarian = system: NCI/ADR-RES ovarian
ACHN renal = system: ACHN renal
DU-145 prostate = system: DU-145 prostate
MCF7 breast = system: MCF7 breast
OVCAR-4 ovarian = system: OVCAR-4 ovarian
HCT-15 colon = system: HCT-15 colon
SK-MEL-5 melanoma = system: SK-MEL-5 melanoma
SNB-19 CNS = system: SNB-19 CNS
M14 melanoma = system: M14 melanoma
MALME-3M melanoma = system: MALME-3M melanoma
SR leukemia = system: SR leukemia

COc1ccc(-c2csc(Cc3nc4c(Br)cc(Br)cc4c(=O)n3-c3ccc(OC)cc3)n2)cc1
TGI (UACC-62 melanoma): > 100 µM
TGI (OVCAR-3 ovarian): > 100 µM
TGI (SW-620 colon): > 100 µM
TGI (U251 CNS): > 100 µM
TGI (CAKI-1 renal): > 100 µM
TGI (UO-31 renal): > 100 µM
TGI (TK-10 renal): > 100 µM
TGI (HOP-92 NSCLC): > 100 µM
TGI (MDA-MB-231 breast): > 100 µM
TGI (NCI/ADR-RES ovarian): > 100 µM
TGI (ACHN renal): > 100 µM
TGI (DU-145 prostate): > 100 µM
TGI (MCF7 breast): > 100 µM
TGI (OVCAR-4 ovarian): > 100 µM
TGI (HCT-15 colon): > 100 µM
TGI (SK-MEL-5 melanoma): 89.3 µM
TGI (SNB-19 CNS): 50.6 µM
TGI (M14 melanoma): 63.1 µM

CCOC(=O)CSC1NC(C(=O)OC)CC1OC (stereo not given)
TGI (UACC-62 melanoma): > 100 µM
TGI (OVCAR-3 ovarian): > 100 µM
TGI (SW-620 colon): > 100 µM
TGI (U251 CNS): > 100 µM
TGI (CAKI-1 renal): > 100 µM
TGI (UO-31 renal): > 100 µM
TGI (TK-10 renal): > 100 µM
TGI (HOP-92 NSCLC): > 100 µM
TGI (MDA-MB-231 breast): > 100 µM
TGI (NCI/ADR-RES ovarian): > 100 µM
TGI (ACHN renal): > 100 µM
TGI (MALME-3M melanoma): > 100 µM
TGI (DU-145 prostate): > 100 µM
TGI (MCF7 breast): > 100 µM
TGI (OVCAR-4 ovarian): > 100 µM
TGI (HCT-15 colon): > 100 µM
TGI (SK-MEL-5 melanoma): > 100 µM
TGI (SNB-19 CNS): > 100 µM
TGI (M14 melanoma): > 100 µM

COC(=O)c1cc(O)c(O)c(O)c1-c1c(O)c(O)c(O)c(SC[C@H](NC(=O)OCc2ccccc2)C(=O)OCc2ccccc2)c1C(=O)OC
TGI (UACC-62 melanoma): 64.8 µM
TGI (OVCAR-3 ovarian): > 100 µM
TGI (SW-620 colon): 62.8 µM
TGI (U251 CNS): 33.5 µM
TGI (CAKI-1 renal): 35.2 µM
TGI (TK-10 renal): > 100 µM
TGI (HOP-92 NSCLC): > 100 µM
TGI (MDA-MB-231 breast): 39 µM
TGI (NCI/ADR-RES ovarian): > 100 µM
TGI (ACHN renal): 61.1 µM
TGI (MALME-3M melanoma): > 100 µM
TGI (DU-145 prostate): > 100 µM
TGI (MCF7 breast): 43.1 µM
TGI (OVCAR-4 ovarian): 89.9 µM
TGI (HCT-15 colon): > 100 µM
TGI (SNB-19 CNS): > 100 µM
TGI (M14 melanoma): 36.8 µM

Cc1nc2cc3ccccc3cc2[nH]c1=O
TGI (UACC-62 melanoma): > 100 µM
TGI (OVCAR-3 ovarian): > 100 µM
TGI (SW-620 colon): > 100 µM
TGI (U251 CNS): > 100 µM
TGI (CAKI-1 renal): > 100 µM
TGI (SR leukemia): > 100 µM
TGI (UO-31 renal): > 100 µM
TGI (TK-10 renal): > 100 µM
TGI (HOP-92 NSCLC): 80.2 µM
TGI (MDA-MB-231 breast): > 100 µM
TGI (NCI/ADR-RES ovarian): > 100 µM
TGI (MALME-3M melanoma): > 100 µM
TGI (DU-145 prostate): > 100 µM
TGI (MCF7 breast): > 100 µM
TGI (OVCAR-4 ovarian): > 100 µM
TGI (HCT-15 colon): > 100 µM
TGI (SK-MEL-5 melanoma): > 100 µM
TGI (SNB-19 CNS): > 100 µM
TGI (M14 melanoma): > 100 µM

COc1ccccc1/C=C1\S/C(=N/Nc2nc(C)c(C(C)=O)s2)NC1=O
TGI (UACC-62 melanoma): > 100 µM
TGI (OVCAR-3 ovarian): 56.1 µM
TGI (SW-620 colon): > 100 µM
TGI (U251 CNS): > 100 µM
TGI (CAKI-1 renal): > 100 µM
TGI (SR leukemia): > 100 µM
TGI (UO-31 renal): 90.4 µM
TGI (TK-10 renal): > 100 µM
TGI (HOP-92 NSCLC): 48 µM
TGI (MDA-MB-231 breast): 65 µM
TGI (NCI/ADR-RES ovarian): > 100 µM
TGI (ACHN renal): > 100 µM
TGI (DU-145 prostate): > 100 µM
TGI (MCF7 breast): 67 µM
TGI (OVCAR-4 ovarian): > 100 µM
TGI (SK-MEL-5 melanoma): 47.7 µM
TGI (SNB-19 CNS): > 100 µM
TGI (M14 melanoma): > 100 µM

C=CCOCn1cc(F)c(=O)[nH]c1=O
TGI (UACC-62 melanoma): > 100 µM
TGI (SW-620 colon): > 100 µM
TGI (CAKI-1 renal): > 100 µM
TGI (SR leukemia): > 100 µM
TGI (UO-31 renal): > 100 µM
TGI (TK-10 renal): > 100 µM
TGI (MDA-MB-231 breast): > 100 µM
TGI (ACHN renal): > 100 µM
TGI (MALME-3M melanoma): > 100 µM
TGI (DU-145 prostate): > 100 µM
TGI (MCF7 breast): > 100 µM
TGI (HCT-15 colon): > 100 µM
TGI (SK-MEL-5 melanoma): > 100 µM
TGI (SNB-19 CNS): > 100 µM
TGI (M14 melanoma): > 100 µM

COc1ccc(CCNC(=O)c2ccccc2C2c3ccc(OCc4ccccc4)cc3Oc3cc(OCc4ccccc4)ccc32)cc1OC
TGI (UACC-62 melanoma): > 100 µM
TGI (OVCAR-3 ovarian): > 100 µM
TGI (SW-620 colon): > 100 µM
TGI (U251 CNS): > 100 µM
TGI (CAKI-1 renal): > 100 µM
TGI (SR leukemia): > 100 µM
TGI (UO-31 renal): > 100 µM
TGI (TK-10 renal): > 100 µM
TGI (MDA-MB-231 breast): > 100 µM
TGI (NCI/ADR-RES ovarian): > 100 µM
TGI (ACHN renal): > 100 µM
TGI (MALME-3M melanoma): > 100 µM
TGI (DU-145 prostate): > 100 µM
TGI (MCF7 breast): > 100 µM
TGI (OVCAR-4 ovarian): > 100 µM
TGI (HCT-15 colon): > 100 µM
TGI (SK-MEL-5 melanoma): > 100 µM
TGI (SNB-19 CNS): > 100 µM
TGI (M14 melanoma): > 100 µM
